One assay addresses T1, Human CARM1 (PRMT4) (Homo sapiens, UniProt Q86X55).
T1 construct: Flag-CARM1-His; made in house; host or cells: HEK 293F cells (BacMam baculovirus)
T1 sequence (Q86X55 1-585 isoform Q86X55-1): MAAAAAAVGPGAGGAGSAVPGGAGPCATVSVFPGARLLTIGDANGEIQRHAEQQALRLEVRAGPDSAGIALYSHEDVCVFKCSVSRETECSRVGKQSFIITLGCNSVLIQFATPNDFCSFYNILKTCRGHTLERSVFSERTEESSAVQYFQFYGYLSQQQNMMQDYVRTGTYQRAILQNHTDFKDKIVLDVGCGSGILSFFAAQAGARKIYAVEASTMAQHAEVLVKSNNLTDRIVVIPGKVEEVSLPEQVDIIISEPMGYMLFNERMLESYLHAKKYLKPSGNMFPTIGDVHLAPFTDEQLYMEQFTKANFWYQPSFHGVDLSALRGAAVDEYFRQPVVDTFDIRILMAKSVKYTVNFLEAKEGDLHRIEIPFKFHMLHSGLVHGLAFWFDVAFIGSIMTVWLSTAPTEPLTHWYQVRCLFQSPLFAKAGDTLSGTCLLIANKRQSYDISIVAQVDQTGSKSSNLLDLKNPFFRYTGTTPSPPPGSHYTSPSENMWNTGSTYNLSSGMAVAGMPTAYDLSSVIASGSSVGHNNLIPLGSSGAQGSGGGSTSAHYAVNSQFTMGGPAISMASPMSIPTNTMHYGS
Put plainly: CARM1 Biochemical Assay (3H-SAM Flashplate, peptide substrate). The following applies: single experiment or average of multiple experiments. In a few lines:
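Flag-CARM1-His from baculovirus was pre-incubated with compound for 30 min at room temperature in 20 mM Bicine pH 7.6, then reacted with 3H-SAM and a biotinylated H3(16-30) R26-monomethyl peptide.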

The next assay addresses T2, human PRMT1 (Homo sapiens, UniProt Q99873).
T2 construct: GST-tagged PRMT1; made in house; host or cells: High Five insect cells (baculovirus)
Put plainly: PRMT1 Biochemical Assay (3H-SAM Flashplate, peptide substrate). The following applies: single experiment or average of multiple experiments. The method in brief: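 GST-tagged PRMT1 from baculovirus-infected cells, preincubated with compounds 30 min at room temperature in 20 mM Bicine pH 7.6, 1 mM TCEP, 0.005% BSG, 0.002% Tween 20. Reaction started with ³H-SAM plus biotinylated peptide, stopped with 300 µM cold SAM.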

Each structure is given as a SMILES string.

T2 sequence (Q99873 with tags, fused parts or gaps): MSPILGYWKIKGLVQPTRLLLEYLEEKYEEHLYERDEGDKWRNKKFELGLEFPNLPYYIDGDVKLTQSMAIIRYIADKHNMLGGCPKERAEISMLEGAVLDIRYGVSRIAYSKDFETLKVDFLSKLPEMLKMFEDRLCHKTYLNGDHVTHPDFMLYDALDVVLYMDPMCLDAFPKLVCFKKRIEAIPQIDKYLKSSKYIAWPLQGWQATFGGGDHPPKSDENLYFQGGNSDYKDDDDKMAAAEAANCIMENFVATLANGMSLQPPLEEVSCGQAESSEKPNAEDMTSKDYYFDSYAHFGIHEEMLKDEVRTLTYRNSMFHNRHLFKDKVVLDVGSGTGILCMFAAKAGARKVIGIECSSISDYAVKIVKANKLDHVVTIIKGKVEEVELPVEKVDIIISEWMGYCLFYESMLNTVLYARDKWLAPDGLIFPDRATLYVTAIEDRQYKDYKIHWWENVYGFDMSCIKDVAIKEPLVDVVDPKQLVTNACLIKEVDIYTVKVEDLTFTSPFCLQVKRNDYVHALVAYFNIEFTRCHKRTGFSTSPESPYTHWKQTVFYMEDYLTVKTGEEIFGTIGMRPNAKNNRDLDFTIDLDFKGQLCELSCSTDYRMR

The IC50 is the concentration at which inhibition is half-maximal. Consider `CNCCN(C)Cc1c[nH]nc1-c1cccc(OC(F)(F)F)c1` [Compound 39], for which the IC50 against Human CARM1 (PRMT4) stood at 2110 nM.

In the case of `CN(CCN)Cc1c[nH]nc1-c1ccc(OC(F)F)cc1` [Compound 94], the 50% inhibitory concentration (IC50) on Human CARM1 (PRMT4) was 873 nM; at human PRMT1, 7.97 nM.

Turning to `CN(CCN)Cc1c[nH]nc1-c1ccc(Cl)cc1` [Compound 95], the half-maximal inhibitory concentration (IC50) against Human CARM1 (PRMT4) worked out at 392 nM; at human PRMT1, 7.84 nM.

On to `CNCCN(C)Cc1cnn(CC2CCOCC2)c1-c1ccc(F)cc1` [Compound 12], for which, on Human CARM1 (PRMT4), the 50% inhibitory concentration (IC50) worked out at 4840 nM.

On to `CN(CCN)Cc1nn(C)cc1-c1ccc(C#N)cc1` [Compound 83], for which the figures for the concentration for half-maximal inhibition (IC50) at Human CARM1 (PRMT4) and against human PRMT1 were 1130 nM and 30.3 nM, respectively.

With `Cc1ccc(-c2n[nH]cc2CN(C)CCN)c(Cl)c1` [Compound 90], the IC50 against Human CARM1 (PRMT4) was 6920 nM; against human PRMT1, 41.3 nM.

As to `Cc1ccc(Cl)c(-c2n[nH]cc2CN(C)CCN)c1` [Compound 91], at human PRMT1, the midpoint of inhibition, the IC50, lay at 272 nM.

Take `CN(CCN)Cc1c[nH]nc1-c1ccc(Cl)cc1Cl` [Compound 86]: the IC50 against Human CARM1 (PRMT4) was determined as 4190 nM; against human PRMT1, 24 nM.

With `CN(CCN)Cc1c[nH]nc1-c1ccc(F)cc1Cl` [Compound 89], the IC50 at Human CARM1 (PRMT4) was 5980 nM; on human PRMT1, 67.4 nM.

For the compound `CNCCN(C)Cc1c[nH]nc1-c1ccc(CC#N)cc1` [Compound 34], the IC50 at Human CARM1 (PRMT4) came out at 1370 nM.

As to `CN(CCN)Cc1c[nH]nc1-c1ccc(N2CCNCC2)cc1` [Compound 82], the IC50 turned out to be 9010 nM on Human CARM1 (PRMT4) and 96.1 nM on human PRMT1.

On to `CN(CCN)Cc1c[nH]nc1-c1ccccc1` [Compound 73], for which the values for the half-inhibitory concentration (IC50) at Human CARM1 (PRMT4) and against human PRMT1 were 2900 nM and 126 nM, respectively.

On to `CN(CCN)Cc1cnn(C2COC2)c1-c1ccc(F)cc1` [Compound 81], for which the half-maximal inhibitory concentration (IC50) was 1630 nM against Human CARM1 (PRMT4) and 435 nM against human PRMT1.

Turning to `CN(CCN)Cc1c[nH]nc1-c1ccc(C(C)(C)C)cc1` [Compound 74], the values for the IC50 at Human CARM1 (PRMT4) and at human PRMT1 were 3530 nM and 14.9 nM, respectively.

`CCN(CCNC)Cc1c[nH]nc1-c1ccc(F)cc1` [Compound 9] yielded an IC50 against Human CARM1 (PRMT4) of 2810 nM.

Take `CN(CCN)Cc1c[nH]nc1-c1ccc(F)cc1` [Compound 1]: on Human CARM1 (PRMT4), 1350 nM corresponded to half-maximal inhibition (IC50).

For `CN(CCN)Cc1c[nH]nc1-c1ccccc1F` [Compound 72], the half-inhibitory concentration (IC50) worked out at 7040 nM on Human CARM1 (PRMT4) and 278 nM against human PRMT1.

`CNCCN(C)Cc1c[nH]nc1-c1cccc(NC(C)=O)c1` [Compound 42] came in with an IC50 against Human CARM1 (PRMT4) of 2240 nM.

Consider `CN(CCN)Cc1n[nH]cc1-c1ccc(F)cc1` [Compound 69], for which the IC50 is 3920 nM against Human CARM1 (PRMT4) and 51.1 nM at human PRMT1.

The compound `NCCN(Cc1c[nH]nc1-c1ccc(F)cc1)C1CC1` [Compound 78] displayed an IC50 on human PRMT1 of 328 nM.

For the compound `COCCn1cc(CN(C)CCN)c(-c2ccc(F)cc2)n1` [Compound 5], on human PRMT1, the concentration for half-maximal inhibition (IC50) stood at 1190 nM.

`CC(C)Oc1ccc(-c2n[nH]cc2CN(C)CCN)cc1` [Compound 67] yielded an IC50 against Human CARM1 (PRMT4) of 247 nM.

For `Cc1ccc(-c2n[nH]cc2CN(C)CCN)c(C)c1` [Compound 88], the concentration for half-maximal inhibition (IC50) on Human CARM1 (PRMT4) was determined as 5220 nM; at human PRMT1, 128 nM.

`CNCCN(C)Cc1c[nH]nc1-c1ccc(-c2ccccc2)cc1` [Compound 47]: the half-inhibitory concentration (IC50) against Human CARM1 (PRMT4) was found to be 28.3 nM. This lies in the double-digit nanomolar range.

Take `CN(CCN)Cc1c[nH]nc1-c1ccc(C(F)(F)F)cc1C(F)(F)F` [Compound 85]: on human PRMT1, the IC50 was 234 nM.

In the case of `CNCCN(C)Cc1c[nH]nc1-c1ccccc1F` [Compound 48], half-maximal inhibition against Human CARM1 (PRMT4) (IC50) required 5620 nM.

Turning to `CN(CCN)Cc1cnn(C)c1-c1ccc(F)cc1` [Compound 4], the values for the concentration for half-maximal inhibition (IC50) against Human CARM1 (PRMT4) and against human PRMT1 were 742 nM and 152 nM, respectively.

`CNCCN(C)Cc1c[nH]nc1-c1cccc(N)c1` [Compound 32]: the IC50 against Human CARM1 (PRMT4) is 1130 nM.

In the case of `CN(CCN)Cc1c[nH]nc1-c1cccc(F)c1` [Compound 71], the IC50 came to 715 nM on Human CARM1 (PRMT4) and 18.8 nM against human PRMT1.

Turning to `CN(CCN)Cc1c[nH]nc1-c1ccc(C(F)(F)F)cc1` [Compound 92], the half-maximal inhibitory concentration (IC50) is 690 nM against Human CARM1 (PRMT4) and 5.69 nM against human PRMT1.

`CNCCN(C)Cc1cnn(C)c1-c1ccc(F)cc1` [Compound 10]: at Human CARM1 (PRMT4), the IC50 was 1190 nM.

For the compound `CN(CCN)Cc1cn(C2COC2)nc1-c1ccc(F)cc1` [Compound 77], the IC50 against Human CARM1 (PRMT4) worked out at 4090 nM; against human PRMT1 it was 215 nM.

For the compound `CN(CCN)Cc1c[nH]nc1-c1cccc(C#N)c1` [Compound 70], the concentration for half-maximal inhibition (IC50) stood at 3630 nM against Human CARM1 (PRMT4) and 200 nM against human PRMT1.

Regarding `COc1ccc(-c2n[nH]cc2CN(C)CCN)c(OC)c1` [Compound 87], the IC50 against Human CARM1 (PRMT4) worked out at 4380 nM; against human PRMT1 it was 172 nM.

For the compound `CN(CCN)Cc1c[nH]nc1-c1ccc(OC(F)(F)F)cc1` [Compound 93], the figures for the IC50 on Human CARM1 (PRMT4) and at human PRMT1 were 1830 nM and 4.64 nM, respectively.

As for `CC(C)N(CCN)Cc1c[nH]nc1-c1ccc(F)cc1` [Compound 75], on human PRMT1, 616 nM corresponded to half-maximal inhibition (IC50).

`CNCCN(C)Cc1c[nH]nc1-c1cccc(C(C)=O)c1` [Compound 44] displayed an IC50 on Human CARM1 (PRMT4) of 1090 nM.

Turning to `CN(CCN)Cc1cn(C)nc1-c1ccc(F)cc1` [Compound 3], the midpoint of inhibition against human PRMT1, the IC50, lay at 58.1 nM.

(Values after US9776972B2, “Pyrazole derivatives as arginine methyltransferase inhibitors and uses thereof” (priority 2013, dated 2017).)
